Like-named read-outs stand apart in the source and are kept apart here.
Key:
[1] = test system: BTX-modified Na+ channels in GH3 cells; test: Whole-cell voltage clamp, voltage-ramp protocol; type: cell-based, rat; settings: for change of binding after CT treatment: 0.5 mM CT 5 min; for voltage dependence of block / IC50: voltage ramp; for voltage dependence of block: quasi steady state; for effect of external Na+ ions on binding: 0 vs 130 mM external Na+; for IC50: no external Na+
[2] = test system: BTX-modified Na+ channels in GH3 cells; type: cell-based, rat; settings: for enhancement of the inactivation of BTX-modified Na+ channels: benzocaine derivatives
[3] = test system: unmodified Na+ channels in GH3 cells; test: Whole-cell voltage clamp, tonic and use-dependent block of normal Na+ currents; type: cell-based, rat; settings: 1 mM; for tonic block of normal Na+ currents: +30 mV test pulse, prepulse -130 mV; for use-dependent block of normal Na+ currents: repetitive +30 mV pulses, 25 ms at 5 Hz
[4] = Solubility in test solution; settings: external solution, from 500 mM DMSO stock

What does the source list for COC(=O)[C@H]1[C@@H](OC(=O)c2ccccc2)C[C@@H]2CC[C@H]1N2C [cocaine, (-)-cocaine]?
change of binding after CT treatment ([1]; from 0 to +50 mV, 0.1 or 0.3 mM): small reduction; change of binding after CT treatment ([1]; from -50 mV to -30 mV, 0.1 or 0.3 mM): slightly enhanced; voltage dependence of block [1]: significantly stronger at +50 mV than at -50 mV

For CCOC(=O)c1ccc(O)cc1 [ethyl 4-hydroxy benzoate], which “enhancement of the inactivation of BTX-modified Na+ channels” value (from here on “enhancement”) [2] is on record?
Its value is “acted more or less as benzocaine”.

For CCOC(=O)c1cccc(O)c1 [ethyl 3-hydroxy benzoate], which “enhancement” value [2] is on record?
The value was “acted more or less as benzocaine”.

Which “enhancement” value [2] does the source give for COC(=O)c1ccc(N)cc1 [methyl 4-amino benzoate] here?
The value was “acted more or less as benzocaine”.

With CCOC(=O)c1ccc(N(C)C)cc1 [N-dimethyl benzocaine, ethyl p-dimethylamino-benzoate] as the compound, how does the “enhancement” value [2] read?
The value was “failed to enhance the inactivation”.

And the “left shift in steady-state inactivation” value [3]?
The value was ~ 10 mV.

What about the “tonic block of normal Na+ currents” value [3] of the same compound?
Its value is “produces a tonic block”.

What about the “use-dependent block of normal Na+ currents” value [3] of the same compound?
Its value is “elicits additional use-dependent block”.

What about the “effect of external Na+ ions on binding” value [1] of the same compound?
The value was “no effect”.

And the “voltage dependence of block” value [1]?
Its value is “enhanced by depolarization”.

And the solubility [4]?
The solubility was “could not reliably dissolve N-dimethyl benzocaine at 3 mM even after heating”.

For batrachotoxin [BTX], which “activation threshold, more negative than that of normal Na+ currents” value ([1]; BTX-modified channels, threshold near -90 mV) is on record?
The value was ~ 50 mV.

For CCOC(=O)c1ccc(N)cc1 [benzocaine, Benzocaine], which IC50 ([2]; read-out: concentration that inhibits 50% of BTX-modified Na+ currents (IC50), at -70 mV, GH3 cells) is on record?
Its IC50 is 200 µM.

What about the “left shift in steady-state inactivation” value [3] of the same compound?
Its value is “about 20 mV”.

And the “tonic block of normal Na+ currents” value [3]?
Its value is “produces a tonic block”.

And the “use-dependent block of normal Na+ currents” value [3]?
Its value is “fails to elicit additional use-dependent block”.

And the “effect of external Na+ ions on binding” value [1]?
Its value is “do not reduce benzocaine binding”.

And the “change of binding after CT treatment” value ([1]; measured from -75 mV to +50 mV, 1 and 3 mM)?
The value was “greatly reduced”.

And the “shift of V0.5 toward the depolarizing direction” value ([1]; 1 mM benzocaine on BTX-modified channels, 130 mM external Na+)?
The value was “about 20 mV”.

What about the IC50 ([1]; at +50 mV) of the same compound?
The IC50 was ~1200 µM.

And the IC50 ([1]; at -50 mV)?
The IC50 was 300 µM.

What about the “voltage dependence of block” value [1] of the same compound?
The value was “greater at the resting membrane potential (-50 to -90 mV) than at positive potentials (0 to +50 mV)”.

And the solubility [4]?
Its solubility is “poor solubility of benzocaine at concentrations higher than 3 mM”.

For CCOC(=O)c1cccc(N)c1 [tricaine], which “enhancement” value [2] is on record?
Its value is “acted more or less as benzocaine”.

— article PMC2216842 (The Journal of General Physiology, 1994)
